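All cell lines were grown in 96-well plates and treated with compound for 48 hours. GI50: concentration for 50% inhibition of growth. TGI denotes the concentration required for complete inhibition of growth.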
Tests used:
Assay in all cases: NCI-60 cell line screen, 48 h
HCC-2998 colon = system: HCC-2998 colon
HCT-116 colon = system: HCT-116 colon
M14 melanoma = system: M14 melanoma
HT29 colon = system: HT29 colon
HOP-62 NSCLC = system: HOP-62 NSCLC
SR leukemia = system: SR leukemia

| Compound | GI50 (HCC-2998 colon) [µM] | TGI (HCC-2998 colon) [µM] | GI50 (HCT-116 colon) [µM] | TGI (HCT-116 colon) [µM] | GI50 (M14 melanoma) [µM] | TGI (M14 melanoma) [µM] | GI50 (HT29 colon) [µM] | TGI (HT29 colon) [µM] | GI50 (HOP-62 NSCLC) [µM] | TGI (HOP-62 NSCLC) [µM] | GI50 (SR leukemia) [µM] | TGI (SR leukemia) [µM] |
| --- | --- | --- | --- | --- | --- | --- | --- | --- | --- | --- | --- | --- |
| N=C(N)CCCCCCCCC(=N)N | 28.5 | > 100 | 22.8 | > 100 | 56.7 | > 100 | 26.3 | > 100 | 30.9 | > 100 | – | – |
| Cc1cc2c(F)c(Oc3ncnn4cc(OC[C@@H](C)OC(=O)[C@H](C)N)c(C)c34)ccc2[nH]1 | 13.5 | 27.6 | 3.38 | 18.9 | 12.3 | 25.7 | 5.73 | 18.9 | 10.3 | 26.9 | 2.99 | 16 |
| C[N+](C)(CCCCCC[N+](C)(C)CCCN1C(=O)c2cc3ccccc3cc2C1=O)CCCN1C(=O)c2ccccc2C1=O | > 37.5 | > 37.5 | > 37.5 | > 37.5 | > 37.5 | > 37.5 | > 37.5 | > 37.5 | > 37.5 | > 37.5 | – | – |
| O=C1C(=O)c2ccccc2C(O)=C1C(CCc1ccccc1)C1=C(O)c2ccccc2C(=O)C1=O | – | – | – | > 100 | – | > 100 | – | > 100 | – | > 100 | – | > 100 |
| C[C@H]1CCC/C=C/[C@@H]2C[C@H](O)C[C@H]2[C@H](O)[C@@H](S(=O)CCN(C)C)CC(=O)O1 (stereo partly specified) | 0.386 | > 100 | 0.279 | 1.19 | 0.111 | > 59.3 | 0.114 | 0.293 | 0.458 | > 63.4 | – | – |
| CC[N+](CC)(CC)CCCn1c2c(c3ccccc3c1=O)C(=O)c1ccccc1-2 | 5.62 | 20.9 | 1.95 | 9.27 | 3.1 | 12.1 | 6.3 | > 100 | – | – | 3.56 | > 100 |
| O=C([CH-]C(=O)c1ccccc1)c1ccccc1.O=C([CH-]C(=O)c1ccccc1)c1ccccc1.[Nd+3].[OH-].[OH3+] | 9.11 | 26.6 | 5.26 | 19 | 13.7 | 32.6 | 8.8 | 26.2 | 3.58 | 18.4 | – | – |
| O=C(Oc1ccc(CCl)cc1)c1ccccc1 | 0.189 | 0.385 | 0.138 | 0.426 | 0.125 | 0.348 | 0.149 | 0.289 | 0.17 | 0.333 | 0.0594 | 0.423 |
| COc1ccc(-c2nc(-c3cn(C)c4ncccc34)cs2)cc1 | 80.6 | > 100 | 38.4 | > 100 | 28.2 | > 100 | 17.3 | > 100 | > 100 | > 100 | 9.7 | > 100 |
| C=C(CN1CCc2ccccc2C1)c1ccc(C(=O)Nc2ccc(N)cc2)cc1 | 14.6 | 43 | 11.9 | > 100 | 11.8 | 65.6 | 19.6 | 43.2 | 28.5 | > 100 | – | – |
